Results published in US8153630B2, “Kinase inhibitors” (Miikana Therapeutics, Inc., priority 2004, dated 2012).

Columns and labels:
Aurora B kinase = Aurora B kinase (Homo sapiens, UniProt Q96GD4); test: Aurora B (Aurora 1) inhibition assay; type: biochemical; conditions: compound concentration 100 μM; ATP 50 μM, 16 h; read-out: inhibition of the Aurora B enzyme
recombinant Aurora A = target: T1, recombinant Aurora A (Homo sapiens, UniProt O14965); test: PanVera Z'-Lyte Aurora kinase assay; type: biochemical; conditions: Z'-Lyte Ser/Thr 1 peptide 2 μM, ATP 10 μM, 1 h
T1 construct: purchased Upstate, Lake Placid, N.Y
T1 sequence (O14965 1-403): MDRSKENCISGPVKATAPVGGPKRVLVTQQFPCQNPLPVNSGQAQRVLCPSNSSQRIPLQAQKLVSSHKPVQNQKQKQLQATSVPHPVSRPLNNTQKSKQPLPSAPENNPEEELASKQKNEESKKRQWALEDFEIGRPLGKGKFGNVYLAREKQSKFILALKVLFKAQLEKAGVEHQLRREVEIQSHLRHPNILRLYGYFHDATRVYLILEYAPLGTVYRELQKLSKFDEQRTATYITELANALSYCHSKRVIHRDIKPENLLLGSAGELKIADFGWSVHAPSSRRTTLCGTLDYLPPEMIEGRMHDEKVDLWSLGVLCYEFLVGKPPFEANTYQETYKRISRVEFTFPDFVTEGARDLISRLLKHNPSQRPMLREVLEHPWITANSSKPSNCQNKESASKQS
Procedure: Compounds 7-14 above were tested for their potency against recombinant Aurora A (Upstate, Lake Placid, N.Y.) using the PanVera Z'-Lyte kinase assay kit—Ser/Thr 1 peptide (Invitrogen, Carlsbad, Calif.). Assays were carried out in kinase assay buffer (50 mM HEPES, pH 7.5, 10 mM MgCl2, 5 mM EGTA, 0.05% Brij-35, 2 mM DTT). Test compounds were initially dissolved in DMSO at 100× the highest tested concentration, then serially diluted to 4× test concentrations in kinase assay buffer. Next, Aurora A (final concentration 200-500 ng/mL), Z′-Lyte Ser/Thr 1 peptide (final concentration 2 μM) and ATP (final concentration 10 μM) were added according to the manufacturer's instructions. Assays were carried out in half-area 96-well white polystyrene assay plates (Corning, Corning, N.Y.) in a final volume of 20 μL. The reaction was allowed to proceed for 1 h at room temperature in the dark, at which point the development reagent and stop reagent were added according to the manufacturer's instructions. Coumarin (Ex. 400 nm, Em. 465 nm) and fluorescein (Ex. 400 nm, Em. 565 nm) fluorescence values were measured on a SpectraFluor Plus plate reader (Tecan, Durham, N.C.). The emission ratio (coumarin/fluorescein) was determined and used to calculate the percent phosphorylation for each well. Wells containing substrate but no kinase and wells containing a phosphopeptide control were used to set 0% and 100% phosphorylation values, respectively. Typically 20-40% of the substrate was phosphorylated in wells without inhibitor. Dose-response curves of relative Aurora A activity vs. inhibitor concentration were plotted with Grafit (Erithacus Software, Horley, Surrey, UK) and used to calculate IC50 values.

HCT 116 Cells = test: Aurora kinase whole cell cytotoxicity assay: Sulforhodamine B; type: cell-based; conditions: Homo sapiens, HCT116, SRB staining, 96 hours incubation
Procedure: Human tumour-derived cell lines, HCT116 or MCF7 (ATCC) were plated in a 96 well plate in DMEM containing 10% fetal bovine serum and 2 mM L-glutamine at a density of 500 HCT116 cells or 1,000 MCF7 cells per well and incubated at 37° C., 5% CO2, for 24 hours prior to the addition of experimental compounds. Compounds were added using the dilution series indicated to duplicate plates and the cells were incubated in media plus compound for 96 hours. An additional plate was fixed in 10% TCA at the time of the addition of compound to provide a measurement of the cell population at time zero, the time of drug addition. Following the 96 hour incubation, cells were fixed in situ by gently aspirating off the culture media and then adding 50 ul of ice cold 10% TCA per well and incubation at 4° C. for 60 minutes. The plates were washed with tap water five times and allowed to air dry for 5 minute. 50 ul of a 0.4% (w/v) Sulforhodamine B solution in 1% (v/v) acetic acid was added per well and the cells were incubated for 30 minutes at room temperature. Following staining, plates were washed four times with 1% acetic acid to remove any unbound dye and then allowed to air dry for 5 minutes. The stain was solubilized with 100 ul of 10 mM Tris pH 10.5 per well and placed on an orbital rotator for 5 minutes. The absorbance was read at 570 nm. Percentage growth was calculated using the absorbance readings from the time zero plate (Tz) and the dilution series plate […] which included a column of cells grown in media without compound as a control (C) using the formulas: [(Ti−Tz)/(C−Tz)]×100 for concentrations for which Ti>/=Tz [(Ti−Tz)/Tz]×100 for concentrations for which Ti<Tz.
Three dose response parameters were calculated for each experimental agent. Growth inhibition of 50% (GI50) was calculated from [(Ti−Tz)/(C−Tz)]×100=50, which was the drug concentration resulting in a 50% reduction in the net protein increase (as measured by SRB staining) in control cells during the drug incubation. The drug concentration resulting in total growth inhibition (TGI) was calculated from Ti=Tz. The LC50 (concentration of drug resulting in a 50% reduction in the measured protein at the end of the drug treatment as compared to that at the beginning) indicating a net loss of cells following treatment ws calculated from [(Ti−Tz)/Tz]×100=−50. Values are calculated for each of these three parameters if the level of activity was reached; however, if the effect was not reached or was exceeded, the value for that parameter is expressed as greater or less than the maximum or minimum concentration tested.

Chain of Aurora B kinase (Q96GD4 whole entry): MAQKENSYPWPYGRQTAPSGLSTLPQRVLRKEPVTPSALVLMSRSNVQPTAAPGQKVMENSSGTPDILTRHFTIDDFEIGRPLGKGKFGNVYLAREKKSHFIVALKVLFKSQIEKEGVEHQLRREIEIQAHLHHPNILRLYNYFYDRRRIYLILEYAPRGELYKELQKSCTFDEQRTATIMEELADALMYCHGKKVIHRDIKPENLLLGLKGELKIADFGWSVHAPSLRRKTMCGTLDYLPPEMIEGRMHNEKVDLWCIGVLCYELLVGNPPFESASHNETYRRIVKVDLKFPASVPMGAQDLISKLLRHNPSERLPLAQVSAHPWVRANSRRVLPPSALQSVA

| Structure (SMILES) | inhibition at 100 µM (Aurora B kinase) [%] | IC50 (recombinant Aurora A) [nM] | GI50 (HCT 116 Cells) [nM] |
| --- | --- | --- | --- |
| Cc1cc(Nc2nc(Sc3ccc(NC(=O)C4CC4)cc3)nc(C(=O)NCCN3CCOCC3)c2N)n[nH]1 [Compound 52, N-(2-Morpholin-4-ylethyl) 2-(4-cyclopropanecarboxamidophenylsulfanyl)-5-amino-6-(5-methylpyrazol-3-ylamino)-4-pyrimidinecarboxamide] | 100 | < 100 | 100 to 1000 |
| Cc1cc(Nc2nc(Sc3ccc(NC(=O)C4CC4)cc3)nc(C(=O)NC3CCOCC3)c2N)n[nH]1 [Compound 63, N-Tetrahydro-2H-pyran-4-yl 2-(4-cyclopropanecarboxamidophenylsulfanyl)-5-amino-6-(5-methylpyrazol-3-ylamino)-4-pyrimidinecarboxamide] |  | < 100 | 100 to 1000 |
| Cc1cc(Nc2nc(Sc3ccc(NC(=O)C4CC4)cc3)nc(C(=O)NC3CCCCC3)c2N)n[nH]1 [Compound 62, N-Cyclohexyl 2-(4-cyclopropanecarboxamidophenylsulfanyl)-5-amino-6-(5-methylpyrazol-3-ylamino)-4-pyrimidinecarboxamide] |  | 100 to 1000 | 1000 to 10000 |
| Cc1cc(Nc2nc(Sc3ccc(NC(=O)C4CC4)cc3)nc(C(=O)NCCN3CCCCC3)c2N)n[nH]1 [Compound 17, N-(2-Piperidin-1-ylethyl) 2-(4-cyclopropanecarboxamidophenylsulfanyl)-5-amino-6-(5-methylpyrazol-3-ylamino)-4-pyrimidinecarboxamide] |  | < 100 | 100 to 1000 |
| Cc1cc(Nc2nc(Sc3ccc(NC(=O)C4CC4)cc3)nc(C(=O)NCc3cccs3)c2N)n[nH]1 [Compound 59, N-(2-Thien-2-ylmethyl) 2-(4-cyclopropanecarboxamidophenylsulfanyl)-5-amino-6-(5-methylpyrazol-3-ylamino)-4-pyrimidinecarboxamide] |  | < 100 | 1000 to 10000 |
| CCOC(=O)c1nc(Nc2ccc(NC(=O)C3CC3)cc2)nc(Nc2cc(C)[nH]n2)c1N [Compound 36, Ethyl 2-({4-[(cyclopropylcarbonyl)amino]phenyl}amino)-5-amino-6-(5-methylpyrazol-3-ylamino)-4-pyrimidinecarboxylate] |  | < 100 | 1000 to 10000 |
| Cc1cc(Nc2nc(Sc3ccc(NC(=O)C4CC4)cc3)nc(C(=O)OCCN3CCOCC3)c2N)n[nH]1 [Compound 18, 2-Morpholin-4-ylethyl 2-(4-cyclopropanecarboxamidophenylsulfanyl)-5-amino-6-(5-methylpyrazol-3-ylamino)-4-pyrimidinecarboxylate] |  | < 100 | 1000 to 10000 |
| Cc1cc(Nc2nc(Sc3ccc(NC(=O)C4CC4)cc3)nc(C(=O)OCCN3CCCCC3)c2N)n[nH]1 [Compound 48, 2-Piperidin-1-ylethyl 2-(4-cyclopropanecarboxamidophenylsulfanyl)-5-amino-6-(5-methylpyrazol-3-ylamino)-4-pyrimidinecarboxylate] |  | < 100 | 1000 to 10000 |
| Cc1cc(Nc2nc(Sc3ccc(NC(=O)C4CC4)cc3)nc(C(=O)NCc3ccco3)c2N)n[nH]1 [Compound 58, N-(2-Furylmethyl) 2-(4-cyclopropanecarboxamidophenylsulfanyl)-5-amino-6-(5-methylpyrazol-3-ylamino)-4-pyrimidinecarboxamide] |  | < 100 | 1000 to 10000 |
| Cc1cc(Nc2nc(Sc3ccc(NC(=O)C4CC4)cc3)nc(C(=O)NCC3CCCO3)c2N)n[nH]1 (centres unmarked) [Compound 54, N-(Tetrahydrofuran-2-ylmethyl) 2-(4-cyclopropanecarboxamidophenylsulfanyl)-5-amino-6-(5-methylpyrazol-3-ylamino)-4-pyrimidinecarboxamide] |  | < 100 | 100 to 1000 |

Continued, in another order:

| inhibition at 100 µM (Aurora B kinase) [%] | IC50 (recombinant Aurora A) [nM] | Structure (SMILES) | GI50 (HCT 116 Cells) [nM] |
| --- | --- | --- | --- |
|  | < 100 | Cc1cc(Nc2nc(Sc3ccc(NC(=O)C4CC4)cc3)nc(C(=O)Nc3ccncc3)c2N)n[nH]1 [Compound 51, N-Pyridin-4-yl 2-(4-cyclopropanecarboxamidophenylsulfanyl)-5-amino-6-(5-methylpyrazol-3-ylamino)-4-pyrimidinecarboxamide] | 1000 to 10000 |
|  | 100 to 1000 | Cc1cc(Nc2nc(Sc3ccc(NC(=O)C4CC4)cc3)nc(C(=O)OCC[Si](C)(C)C)c2N)n[nH]1 [Compound 67] | 1000 to 10000 |
|  | 100 to 1000 | Cc1cc(Nc2nc(Sc3ccc(NC(=O)C4CC4)cc3)nc(C(=O)NC(C)(C)C)c2N)n[nH]1 [Compound 57, N-(tert-Butyl) 2-(4-cyclopropanecarboxamidophenylsulfanyl)-5-amino-6-(5-methylpyrazol-3-ylamino)-4-pyrimidinecarboxamide] | 1000 to 10000 |
|  | < 100 | Cc1cc(Nc2nc(Sc3ccc(NC(=O)C4CC4)cc3)nc(C(=O)OC(C)C)c2N)n[nH]1 [Compound 49, Isopropyl 2-(4-cyclopropanecarboxamidophenylsulfanyl)-5-amino-6-(5-methylpyrazol-3-ylamino)-4-pyrimidinecarboxylate] | 100 to 1000 |
|  | < 100 | CSCCOC(=O)c1nc(Sc2ccc(NC(=O)C3CC3)cc2)nc(Nc2cc(C)[nH]n2)c1N [Compound 41] | 100 to 1000 |
|  | 1000 to 10000 | Cc1cc(Nc2nc(Sc3ccc(NC(=O)C4CC4)cc3)nc(C(=O)N3CCN(C)CC3)c2N)n[nH]1 [Compound 68] | 1000 to 10000 |
|  | < 100 | Cc1cc(Nc2nc(Sc3ccc(NC(=O)C4CC4)cc3)nc(C(=O)OC3CCOCC3)c2N)n[nH]1 [Compound 19, Tetrahydro-2H-pyran-4-yl 2-(4-cyclopropanecarboxamidophenylsulfanyl)-5-amino-6-(5-methylpyrazol-3-ylamino)-4-pyrimidinecarboxylate] | 100 to 1000 |
|  | < 100 | Cc1cc(Nc2nc(Sc3ccc(NC(=O)C4CC4)cc3)nc(C(=O)OCCO)c2N)n[nH]1 [Compound 50, 2-Hydroxyethyl 2-(4-cyclopropanecarboxamidophenylsulfanyl)-5-amino-6-(5-methylpyrazol-3-ylamino)-4-pyrimidinecarboxylate] | 1000 to 10000 |
|  | < 100 | COCCCNC(=O)c1nc(Sc2ccc(NC(=O)C3CC3)cc2)nc(Nc2cc(C)[nH]n2)c1N [Compound 55, N-(3-Methoxypropyl) 2-(4-cyclopropanecarboxamidophenylsulfanyl)-5-amino-6-(5-methylpyrazol-3-ylamino)-4-pyrimidinecarboxamide] | 100 to 1000 |
|  | < 100 | Cc1cc(Nc2nc(Sc3ccc(NC(=O)C4CC4)cc3)nc(C(=O)OC3CCN(C)CC3)c2N)n[nH]1 [Compound 47, 1-Methylpiperidin-4-yl 2-(4-cyclopropanecarboxamidophenylsulfanyl)-5-amino-6-(5-methylpyrazol-3-ylamino)-4-pyrimidinecarboxylate] | 100 to 1000 |
